Test results: patent US9809587B2, “Pesticidally active heterocyclic derivatives with sulphur containing substituents” (Syngenta Participations AG, priority 2014, dated 2017)

Experiments:
Assay type in all cases: in vivo
[1] = test system: Myzus persicae (Green Peach Aphid); assay: Myzus persicae (green peach aphid), sprayed sunflower leaf discs; details: foliar, 144 h, application rate of 200 ppm, mixed ages on sunflower leaf discs, 6 days after infestation
Experimental: Example B4: Myzus persicae (Green Peach Aphid)
Sunflower leaf discs were placed on agar in a 24-well microtiter plate and sprayed with aqueous test solutions prepared from 10′000 ppm DMSO stock solutions. After drying, the leaf discs were infested with an aphid population of mixed ages. The samples were assessed for mortality 6 days after infestation.

[2] = test system: Myzus persicae (Green Peach Aphid); assay: Myzus persicae (green peach aphid), roots of pea seedlings in test solution; details: 144 h, test rate of 24 ppm, roots of infested pea seedlings in test solution, 6 days
Experimental: Example B5: Myzus persicae (Green Peach Aphid)
Roots of pea seedlings infested with an aphid population of mixed ages were placed directly in the aqueous test solutions prepared from 10′000 DMSO stock solutions. The samples were assessed for mortality 6 days after placing seedlings in test solutions.

[3] = test system: Plutella xylostella (Diamond Back Moth); assay: Plutella xylostella (diamond back moth), treated artificial diet; details: 120 h, application rate of 200 ppm, L2 larvae on artificial diet, 5 days after infestation, read-out: effect in at least one of the two categories (mortality or growth inhibition)
Experimental: Example B6: Plutella xylostella (Diamond Back Moth)
(§1) 24-well microtiter plates with artificial diet were treated with aqueous test solutions prepared from 10′000 ppm DMSO stock solutions by pipetting. After drying, the plates were infested with L2 larvae (10 to 15 per well). The samples were assessed for mortality and growth inhibition in comparison to untreated samples 5 days after infestation.
The following compounds gave an effect of at least 80% in at least one of the two categories (mortality or growth inhibition) at an application rate of 200 ppm: […]

[4] = test system: Diabrotica balteata (Corn Root Worm); assay: Diabrotica balteata (corn root worm), sprayed maize sprouts; details: 96 h, application rate of 200 ppm, L2 larvae on maize sprouts, 4 days after infestation
Experimental: Example B2: Diabrotica balteata (Corn Root Worm)
as §1, with “Maize sprouts, placed on an agar layer in 24-well” for “24-well”, “plates” for “plates with artificial diet”, “spraying.” for “pipetting.”, “(6” for “(10”, “10” for “15”, “4” for “5”

[5] = test system: Euschistus heros (Neotropical Brown Stink Bug); assay: Euschistus heros (neotropical brown stink bug), sprayed soybean leaf; details: 120 h, application rate of 200 ppm, N-2 nymphs on soybean leaf, 5 days after infestation
Experimental: Example B3: Euschistus heros (Neotropical Brown Stink Bug)
Soybean leaf on agar in 24-well microtiter plates were sprayed with aqueous test solutions prepared from 10′000 ppm DMSO stock solutions. After drying the leaf were infested with N-2 nymphs. The samples were assessed for mortality in comparison to untreated samples 5 days after infestation.

[6] = test system: Spodoptera littoralis (Egyqptian Cotton Leaf Worm); assay: Spodoptera littoralis (Egyptian cotton leaf worm), sprayed cotton leaf discs; details: foliar, 72 h, application rate of 200 ppm, L1 larvae on cotton leaf discs, 3 days after infestation
Experimental: Example B7: Spodoptera littoralis (Egyqptian Cotton Leaf Worm)
Cotton leaf discs were placed on agar in 24-well microtiter plates and sprayed with aqueous test solutions prepared from 10′000 ppm DMSO stock solutions. After drying the leaf discs were infested with five L1 larvae. The samples were assessed for mortality, anti-feedant effect, and growth inhibition in comparison to untreated samples 3 days after infestation. Control of Spodoptera littoralis by a test sample is when at least one of mortality, anti-feedant effect, and growth inhibition is higher than the untreated sample.

[7] = test system: Spodoptera littoralis (Egyqptian Cotton Leaf Worm); assay: Spodoptera littoralis (Egyptian cotton leaf worm), compound in agar taken up by lettuce roots; details: 144 h, test rate of 12.5 ppm, uptake by lettuce roots from agar, 6 days after infestation, read-out: effect in at least one of the three categories (mortality, anti-feedancy, or growth inhibition)
Text: Example B8: Spodoptera littoralis (Egyqptian Cotton Leaf Worm)
Test compounds were applied by pipette from 10′000 ppm DMSO stock solutions into 24-well plates and mixed with agar. Lettuce seeds were placed on the agar and the multi well plate was closed by another plate which contains also agar. After 7 days the roots have absorbed the compound and the lettuce has grown into the lid plate. The lettuce leafs were now cut off into the lid plate. Spodoptera eggs were pipetted through a plastic stencil on a humid gel blotting paper and the plate closed with it. The samples were assessed for mortality, anti-feedant effect and growth inhibition in comparison to untreated samples 6 days after infestation.
The following compounds gave an effect of at least 80% in at least one of the three categories (mortality, anti-feedancy, or growth inhibition) at a test rate of 12.5 ppm: […]

CCS(=O)(=O)c1cc(-c2cncc(Cl)c2)cnc1-c1nc2cc(C(F)(F)F)ncc2n1C [Compound P3]
≥ 80%: mortality at 200 ppm [1] | mortality at 24 ppm [2] | percent effect (mortality or growth inhibition) at 200 ppm [3] | mortality at 200 ppm [4] | mortality at 200 ppm [5]

CCS(=O)(=O)c1cc(-c2cnc(OC)nc2)cnc1-c1nc2cc(C(F)(F)F)ncc2n1C [Compound P9]
≥ 80%: mortality at 200 ppm [1] | percent control (mortality, anti-feedant effect or growth inhibition) at 200 ppm [6] | mortality at 24 ppm [2] | percent effect (mortality or growth inhibition) at 200 ppm [3]

CCS(=O)(=O)c1cc(-n2ccccc2=O)cnc1-c1nc2cc(C(F)(F)F)ncc2n1C [Compound P26]
≥ 80%: mortality at 200 ppm [1] | mortality at 24 ppm [2] | percent effect (mortality or growth inhibition) at 200 ppm [3] | mortality at 200 ppm [4] | mortality at 200 ppm [5]

CCS(=O)(=O)c1cc(-c2cccn3ncnc23)cnc1-c1nc2cc(C(F)(F)F)ncc2n1C [Compound P34]
≥ 80%: mortality at 200 ppm [1] | percent control (mortality, anti-feedant effect or growth inhibition) at 200 ppm [6] | mortality at 24 ppm [2] | percent effect (mortality or growth inhibition) at 200 ppm [3] | mortality at 200 ppm [4] | mortality at 200 ppm [5]

CCS(=O)(=O)c1cc(-c2cnc3nc(C)ccn23)cnc1-c1nc2cc(C(F)(F)F)ncc2n1C [Compound P37]
≥ 80%: mortality at 200 ppm [1] | mortality at 24 ppm [2] | percent effect (mortality or growth inhibition) at 200 ppm [3] | mortality at 200 ppm [4] | mortality at 200 ppm [5]

CCS(=O)(=O)c1cc(-c2ccnc(C)c2)cnc1-c1nc2cc(C(F)(F)F)ncc2n1C [Compound P53]
≥ 80%: mortality at 200 ppm [1] | percent control (mortality, anti-feedant effect or growth inhibition) at 200 ppm [6] | percent control (mortality, anti-feedancy or growth inhibition) at 12.5 ppm [7] | mortality at 24 ppm [2] | percent effect (mortality or growth inhibition) at 200 ppm [3] | mortality at 200 ppm [5]

CCS(=O)(=O)c1cc(-c2cnc(N)nc2C)cnc1-c1nc2cc(C(F)(F)F)ncc2n1C [Compound P58]
≥ 80%: mortality at 200 ppm [1] | mortality at 24 ppm [2] | percent effect (mortality or growth inhibition) at 200 ppm [3] | mortality at 200 ppm [4] | mortality at 200 ppm [5]

CCS(=O)(=O)c1cc(-c2cncs2)cnc1-c1nc2cc(C(F)(F)F)ncc2n1C [Compound P60]
≥ 80%: mortality at 200 ppm [1] | percent control (mortality, anti-feedant effect or growth inhibition) at 200 ppm [6] | mortality at 24 ppm [2] | percent effect (mortality or growth inhibition) at 200 ppm [3] | mortality at 200 ppm [4] | mortality at 200 ppm [5]

CCS(=O)(=O)c1cc(-c2ncncc2F)cnc1-c1nc2cc(C(F)(F)F)ncc2n1C [Compound P61]
≥ 80%: mortality at 200 ppm [1] | percent control (mortality, anti-feedant effect or growth inhibition) at 200 ppm [6] | percent control (mortality, anti-feedancy or growth inhibition) at 12.5 ppm [7] | mortality at 24 ppm [2] | percent effect (mortality or growth inhibition) at 200 ppm [3] | mortality at 200 ppm [4] | mortality at 200 ppm [5]

CCS(=O)(=O)c1cc(-n2cccn2)cnc1-c1nc2cc(C(F)(F)F)ncc2n1C [Compound P84]
≥ 80%: mortality at 200 ppm [1] | percent control (mortality, anti-feedant effect or growth inhibition) at 200 ppm [6] | percent control (mortality, anti-feedancy or growth inhibition) at 12.5 ppm [7] | mortality at 24 ppm [2] | percent effect (mortality or growth inhibition) at 200 ppm [3] | mortality at 200 ppm [4] | mortality at 200 ppm [5]

CCS(=O)(=O)c1cc(-n2ccc(C)n2)cnc1-c1nc2cc(C(F)(F)F)ncc2n1C [Compound P102]
≥ 80%: mortality at 200 ppm [1] | percent control (mortality, anti-feedant effect or growth inhibition) at 200 ppm [6] | mortality at 24 ppm [2] | percent effect (mortality or growth inhibition) at 200 ppm [3] | mortality at 200 ppm [4] | mortality at 200 ppm [5]

CCS(=O)(=O)c1cc(-c2cc(OC)ccn2)cnc1-c1nc2cc(C(F)(F)F)ncc2n1C [Compound P109]
≥ 80%: mortality at 200 ppm [1] | percent control (mortality, anti-feedant effect or growth inhibition) at 200 ppm [6] | mortality at 24 ppm [2] | percent effect (mortality or growth inhibition) at 200 ppm [3] | mortality at 200 ppm [4] | mortality at 200 ppm [5]
